Two compounds from article PMC9667253 (eBioMedicine, 2022) can be followed below.

One test concerns the target E2F2 (Homo sapiens, UniProt Q14209). Briefly: competition in biotin-bufalin pull-down from HepG2 lysate. Format: cell-based.
The target of test [1] is ZFP91 (zinc finger protein 91) (Homo sapiens, UniProt Q96JP5). Briefly: MST. In kind it is binding.
ZFP91 (zinc finger protein 91), sequence (Q96JP5 2-570): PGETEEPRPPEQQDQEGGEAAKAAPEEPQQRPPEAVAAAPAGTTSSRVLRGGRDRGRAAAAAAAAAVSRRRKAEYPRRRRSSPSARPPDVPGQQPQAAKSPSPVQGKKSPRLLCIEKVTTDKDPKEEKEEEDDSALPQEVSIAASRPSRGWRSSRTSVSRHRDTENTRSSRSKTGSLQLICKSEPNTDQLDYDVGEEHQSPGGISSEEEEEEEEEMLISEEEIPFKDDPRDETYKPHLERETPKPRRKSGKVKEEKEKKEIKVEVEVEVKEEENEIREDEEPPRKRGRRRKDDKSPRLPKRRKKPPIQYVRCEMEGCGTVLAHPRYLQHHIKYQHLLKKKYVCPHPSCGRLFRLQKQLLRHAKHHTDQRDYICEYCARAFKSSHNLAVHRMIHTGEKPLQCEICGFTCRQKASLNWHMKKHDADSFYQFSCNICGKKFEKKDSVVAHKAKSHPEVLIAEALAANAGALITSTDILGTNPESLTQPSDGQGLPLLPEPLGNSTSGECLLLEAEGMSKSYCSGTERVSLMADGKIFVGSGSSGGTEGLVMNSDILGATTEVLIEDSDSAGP

E2F2, sequence (Q14209 whole entry): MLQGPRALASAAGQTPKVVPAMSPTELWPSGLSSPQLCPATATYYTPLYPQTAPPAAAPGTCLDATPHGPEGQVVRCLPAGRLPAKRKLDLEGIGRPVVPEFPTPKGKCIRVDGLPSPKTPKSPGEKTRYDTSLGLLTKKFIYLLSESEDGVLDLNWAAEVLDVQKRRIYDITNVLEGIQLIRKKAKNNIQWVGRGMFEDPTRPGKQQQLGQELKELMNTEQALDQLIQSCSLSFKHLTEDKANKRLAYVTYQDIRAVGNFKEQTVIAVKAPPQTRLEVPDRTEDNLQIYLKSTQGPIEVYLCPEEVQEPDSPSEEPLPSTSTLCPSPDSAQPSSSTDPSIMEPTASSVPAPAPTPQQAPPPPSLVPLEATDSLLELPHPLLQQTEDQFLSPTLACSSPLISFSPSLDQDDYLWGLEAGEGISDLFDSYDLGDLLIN

As to `C[C@]12CC[C@@H](O)C[C@@H]1CC[C@@H]1[C@@H]2CC[C@]2(C)C(=O)CC[C@@H]12` [DHA, androsterone], the “competition in biotin-bufalin pull-down from HepG2 lysate” value on E2F2 is listed as “DHA significantly limited the binding of biotin-bufalin to E2F2”.

What is called Kd is the equilibrium constant for the complex coming apart. For `O=c1cccco1` [α-Pyr, α-Pyrone], the equilibrium dissociation constant (Kd) in test [1] stood at 900 ± 322 nM.
